Laboratory results reported in patent US12673961B2 (Agios Pharmaceuticals, Inc., priority 2022, dated 2026).

Target: T1, human PAH with the R408W mutation (Homo sapiens, UniProt P00439, R408W)
T1 construct: expressed in transfected cells
T1 sequence (P00439 1-452 R408W): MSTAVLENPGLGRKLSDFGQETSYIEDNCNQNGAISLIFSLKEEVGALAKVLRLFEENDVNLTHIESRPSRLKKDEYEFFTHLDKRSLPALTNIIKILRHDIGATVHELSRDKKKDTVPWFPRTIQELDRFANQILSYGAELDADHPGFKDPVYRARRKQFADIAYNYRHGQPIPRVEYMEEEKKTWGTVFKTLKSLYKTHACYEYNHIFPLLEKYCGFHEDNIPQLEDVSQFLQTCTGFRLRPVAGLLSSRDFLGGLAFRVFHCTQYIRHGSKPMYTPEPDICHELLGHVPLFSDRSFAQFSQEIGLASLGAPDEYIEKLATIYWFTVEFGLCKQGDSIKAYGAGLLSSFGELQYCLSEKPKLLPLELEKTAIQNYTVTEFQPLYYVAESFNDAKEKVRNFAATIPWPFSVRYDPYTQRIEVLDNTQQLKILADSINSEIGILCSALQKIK
Assay: Cell Based Phenylalanine Flux Assay;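 also: Ten-point dose curve from 2-fold serial dilutions, run in duplicate at 0.5% DMSO final, tracer step used 20 µM sepiapterin and 800 µM labeled phenylalanine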
Design: scale not given here
Conditions: A375 cells expressing R408W PAH; 24 hrs with compound, then 20 μM sepiapterin and 800 μM 13C9,15N-Phenylalanine for 4 hours; 13C-Tyrosine in media by LC-MS; average where tested multiple times

AC50	Structure (SMILES)
E, E	CC(C)(O)c1nc(C(F)(F)F)c(C(=O)N2CCc3[nH]cnc3C2c2cc3c(Cl)cccn3n2)o1 (stereo not drawn)
E, E	Cc1cccn2nc(C3c4nc[nH]c4CCN3C(=O)c3oc(C(C)(C)O)nc3C(F)(F)F)cc12 (stereo not drawn)

Same assay, conditions: A375 cells expressing R408W PAH; 24 hrs with compound, then 20 μM sepiapterin and 800 μM 13C9,15N-Phenylalanine for 4 hours; 13C-Tyrosine in media by LC-MS; average where tested multiple times; read-out: AC50

AC50 [nM]	Structure (SMILES)
1000 to 5000	c1cc(C2CC2)c2cc([C@@H]3c4nc[nH]c4CCN3c3nnc(-c4ccncn4)o3)nn2c1 (single isomer, unassigned)
1000 to 5000	FC1(F)CC(c2nnc(N3CCc4[nH]cnc4[C@H]3c3cc4c(C(F)(F)F)cccn4n3)o2)C1 (single isomer, unassigned)
> 5000	O=C(c1nnc(-c2ncccn2)o1)N1CCc2[nH]cnc2C1c1cc2c(C3CC3)cccn2n1 (stereo not drawn)
> 5000	Fc1ccc(-c2nnc(N3CCc4[nH]cnc4C3c3cc4ccccn4n3)o2)nc1 (stereo not drawn)
1000 to 5000	Fc1cccc2cc([C@@H]3c4nc[nH]c4CCN3c3ncccn3)nn12 (single isomer, unassigned)
1000 to 5000	CC(C)c1cccn2nc([C@@H]3c4nc[nH]c4CCN3c3nnc(-c4ncccn4)o3)cc12 (single isomer, unassigned)

Structure (SMILES)	AC50 [nM]
Cn1nc(C(C)(C)C)cc1C(=O)N1CCc2[nH]cnc2[C@@H]1c1cc2c(F)cccn2n1 (single isomer, unassigned)	> 5000
Cc1ccn2nc(C3c4nc[nH]c4CCN3C(=O)c3nnc(-c4cnn(C)c4)o3)cc2c1 (single isomer, unassigned)	> 5000
Cc1nnc(C(=O)N2CCc3[nH]cnc3[C@H]2c2cc3c(OC(F)F)cccn3n2)o1 (single isomer, unassigned)	1000 to 5000

Same assay, conditions: A375 cells expressing human R408W PAH; 24 hrs compound incubation; 13C-Tyrosine by LC-MS; average where tested multiple times; read-out: AC50

AC50 [nM]	Structure (SMILES)
< 500	O=C(CC1CC(F)C1)N1CCc2[nH]cnc2[C@H]1c1cc2ccccn2n1 (stereo partly drawn) [Example 636, (S)-2-(3-fluorocyclobutyl)-1-(4-(pyrazolo[1,5-a]pyridin-2-yl)-6,7-dihydro-1H-imidazo [4,5-c]pyridin-5(4H)-yl)ethenone]
< 500	O=C(c1nnc(-c2ccn(C(F)F)n2)o1)N1CCc2[nH]cnc2[C@H]1c1cc2c(Cl)cccn2n1 [Example 1118, (S)-(4-(4-chloropyrazolo [1,5-a]pyridin-2-yl)-6,7-dihydro-1H-imidazo[4,5-c]pyridin-5(4H)-yl)(5-(1-(difluoromethyl)-1H-pyrazol-3-yl)-1,3,4-oxadiazol-2-yl)methanone]
1000 to 5000	Cc1cc(F)ccc1-c1nnc(C(=O)N2CCc3[nH]cnc3[C@@H]2c2cc3ccccn3n2)o1 [Example 655, (R)-(5-(4-fluoro-2-methylphenyl)-1,3,4-oxadiazol-2-yl)(4-(pyrazolo [1,5-a]pyridin-2-yl)-6,7-dihydro-1H-imidazo[4,5-c]pyridin-5(4H)-yl)methanone]
500 to 1000	O=C(c1nnc(-c2cnn(C(F)F)c2)o1)N1CCc2[nH]cnc2[C@H]1c1cc2cccc(F)n2n1 [Example 984, (S)-(5-(1-(difluoromethyl)-1H-pyrazol-4-yl)-1,3,4-oxadiazol-2-yl)(4-(7-fluoropyrazolo[1,5-a]pyridin-2-yl)-6,7-dihydro-1H-imidazo [4,5-c]pyridin-5(4H)-yl)methanone]
500 to 1000	Cn1cc(-c2nnc(C(=O)N3CCc4[nH]cnc4[C@H]3c3cc4cccc(F)n4n3)o2)cn1 [Example 1224, (S)-(4-(7-fluoropyrazolo[1,5-a]pyridin-2-yl)-6,7-dihydro-1H-imidazo[4,5-c]pyridin-5(4H)-yl)(5-(1-methyl-1H-pyrazol-4-yl)-1,3,4-oxadiazol-2-yl) methanone]
< 500	CC(C)(O)c1nc(C(F)(F)F)c(C(=O)N2CCc3[nH]cnc3[C@H]2c2cc3c(F)cccn3n2)o1 [Example 744, (S)-(4-(4-fluoropyrazolo[1,5-a]pyridin-2-yl)-6,7-dihydro-1H-imidazo[4,5-c]pyridin-5(4H)-yl)(2-(2-hydroxypropan-2-yl)-4-(trifluoromethyl)oxazol-5-yl)methanone]
< 500	Cc1cccc(-c2nnc(C(=O)N3CCc4[nH]cnc4[C@H]3c3cc4ccccn4n3)o2)n1 [Example 1382, (S)-(5-(6-methylpyridin-2-yl)-1,3,4-oxadiazol-2-yl)(4-(pyrazolo[1,5-a]pyridin-2-yl)-6,7-dihydro-1H-imidazo[4,5-c]pyridin-5(4H)-yl)methanone]
> 5000	Cc1cccn2nc([C@H]3c4nc[nH]c4CCN3C(=O)c3nnc(-c4ccc(F)cn4)o3)cc12 [Example 874, (R)-(5-(5-fluoropyridin-2-yl)-1,3,4-oxadiazol-2-yl)(4-(4-methylpyrazolo[1,5-a]pyridin-2-yl)-6,7-dihydro-1H-imidazo[4,5-c]pyridin-5(4H)-yl)methanone]
< 500	Cc1cccc2cc([C@@H]3c4nc[nH]c4CCN3C(=O)c3nnc(-c4ccn(C)n4)o3)nn12 [Example 802, (S)-(5-(1-methyl-1H-pyrazol-3-yl)-1,3,4-oxadiazol-2-yl)(4-(7-methylpyrazolo[1,5-a]pyridin-2-yl)-6,7-dihydro-1H-imidazo[4,5-c]pyridin-5(4H)-yl)methanone]
< 500	CC(C)(O)c1nc(C(F)F)c(C(=O)N2CCc3[nH]cnc3[C@H]2c2cc3ccc(C(F)(F)F)cn3n2)o1 [Example 1116, (S)-(4-(difluoromethyl)-2-(2-hydroxypropan-2-yl)oxazol-5-yl)(4-(6-(trifluoromethyl)pyrazolo[1,5-a]pyridin-2-yl)-6,7-dihydro-1H-imidazo [4,5-c]pyridin-5(4H)-yl)methanone]

Same assay, conditions: A375 cells expressing human R408W PAH; 24 hrs with compound, then sepiapterin and 13C9,15N-Phenylalanine for 4 hours; 13C-Tyrosine by LC-MS; average where tested multiple times; read-out: AC50

AC50 [nM]	Structure (SMILES)
500 to 1000	Clc1cccn2nc([C@@H]3c4nc[nH]c4CCN3c3nnc(-c4cccnc4)o3)cc12 [Example 2262, (S)-2-(4-(4-chloropyrazolo [1,5-a]pyridin-2-yl)-1,4,6,7-tetrahydro-5H-imidazo[4,5-c]pyridin-5-yl)-5-(pyridin-3-yl)-1,3,4-oxadiazole]
< 500	FC(F)Oc1cccn2nc([C@@H]3c4nc[nH]c4CCN3c3nnc(C(F)(F)F)o3)cc12 [Example 2155, (S)-2-(4-(4-(difluoromethoxy)pyrazolo[1,5-a]pyridin-2-yl)-1,4,6,7-tetrahydro-5H-imidazo[4,5-c]pyridin-5-yl)-5-(trifluoromethyl)-1,3,4-oxadiazole]
> 5000	O=C(c1cnn2cc(C3CC3)ccc12)N1CCc2[nH]cnc2[C@@H]1c1cc2c(F)cccn2n1 [Example 1673, (R)-(6-cyclopropylpyrazolo [1,5-a]pyridin-3-yl)(4-(4-fluoropyrazolo[1,5-a]pyridin-2-yl)-6,7-dihydro-1H-imidazo[4,5-c]pyridin-5(4H)-yl)methanone]
> 5000	FC(F)c1cccc2cc([C@H]3c4nc[nH]c4CCN3c3nnc(-c4ccccn4)o3)nn12 [Example 1627, (R)-2-(4-(7-(difluoromethyl)pyrazolo[1,5-a]pyridin-2-yl)-6,7-dihydro-1H-imidazo [4,5-c]pyridin-5(4H)-yl)-5-(pyridin-2-yl)-1,3,4-oxadiazole]
> 5000	CC1(c2nnc(N3CCc4[nH]cnc4[C@@H]3c3cc4c(C5CC5)cccn4n3)o2)CC1 [Example 2226, (R)-2-(4-(4-cyclopropylpyrazolo [1,5-a]pyridin-2-yl)-1,4,6,7-tetrahydro-5H-imidazo [4,5-c]pyridin-5-yl)-5-(1-methylcyclopropyl)-1,3,4-oxadiazole]
> 5000	CC(C)(F)c1nnc(C(=O)N2CCc3[nH]cnc3[C@@H]2c2cc3c(C4CC4)cccn3n2)o1 [Example 2060]
< 500	CC(C)c1cccn2nc([C@@H]3c4nc[nH]c4CCN3c3nnc(C(F)(F)F)o3)cc12 [Example 2147, (S)-2-(4-(4-isopropylpyrazolo [1,5-a]pyridin-2-yl)-1,4,6,7-tetrahydro-5H-imidazo [4,5-c]pyridin-5-yl)-5-(trifluoromethyl)-1,3,4-oxadiazole]
> 5000	Cc1ccc2cc([C@H]3c4nc[nH]c4CCN3C(=O)c3nnc(-c4cnn(C)c4)o3)nn2c1 [Example 2381, (R)-(5-(1-methyl-1H-pyrazol-4-yl)-1,3,4-oxadiazol-2-yl)(4-(6-methylpyrazolo[1,5-a]pyridin-2-yl)-6,7-dihydro-1H-imidazo[4,5-c]pyridin-5(4H)-yl)methanone]
< 500	O=C([C@@H]1CC1(F)F)N1CCc2[nH]cnc2[C@H]1c1cc2c(F)cccn2n1 [Example 2030, ((S)-2,2-difluorocyclopropyl) ((S)-4-(4-fluoropyrazolo[1,5-a]pyridin-2-yl)-1,4,6,7-tetrahydro-5H-imidazo[4,5-c]pyridin-5-yl)methanone]
> 5000	O=C(c1cnc(-c2cnccn2)o1)N1CCc2[nH]cnc2[C@@H]1c1cc2c(C(F)F)cccn2n1 [Example 2243]
500 to 1000	Fc1cccn2nc([C@@H]3c4nc[nH]c4CCN3c3nnc(C(F)(F)F)o3)cc12 [Example 1823]
< 500	Cc1nn(C)cc1-c1nnc(C(=O)N2CCc3[nH]cnc3[C@H]2c2cc3c(C(F)F)cccn3n2)o1 [Example 1466, (S)-(4-(4-(difluoromethyl)pyrazolo[1,5-a]pyridin-2-yl)-6,7-dihydro-1H-imidazo[4,5-c]pyridin-5(4H)-yl)(5-(1,3-dimethyl-1H-pyrazol-4-yl)-1,3,4-oxadiazol-2-yl)methanone]
